Where two headings read alike, the source gives them in different places.
What was measured:
Format in all cases: cell-based
[1] = tested on: Vesicular stomatitis virus (VSV) Indiana serotype
[2] = tested on: BVDV cytopathic strain NADL
BVDV strain NADL = assay: microbe, parasite or virus in culture
[3] = VSV-infected cells at MOI=0.01, concentration of 1 mM
[4] = cells infected with VSV at MOI>1

Compound | antiviral activity [1, 3] | antiviral activity [1, 4] | antiviral activity [2] | inhibition of BVDV replication (BVDV strain NADL) | EC50 (BVDV strain NADL; Bovine viral diarrhea virus isolates and strains, MDBK, read-out: Dm)
CC1OC(OC2C(CO)OC(OC3C(CO)OC(O)C(O)C3O)C(O)C2O)C(O)C(O)C1NC1C=C(CO)C(O)C(O)C1O [acarbose, O-4,6-dideoxy-4-[[(1S,4R,5S,6S)-4,5,6-trihydroxy-3-(hydroxymethyl)-2-cyclohexen-1-yl]amino]-α-D-glucopyranosyl-(1→4)-O-α-D-glucopyranosyl-(1→4)-D-glucose] | exhibited antiviral activity | none | only the positive control CTS exhibited antiviral activity | potent antiviral agents that inhibit BVDV replication | –
O[C@H]1[C@H](O)[C@@H](O)CN2CC[C@H](O)[C@H]12 [CTS, Castanospermine] | exhibited antiviral activity | none | exhibited antiviral activity | – | –
OCCN1CC(O)C(O)C(O)C1CO (stereo not drawn) [miglitol, 3,4,5-piperidinetriol, 1-(2-hydroxyethyl)-2-(hydroxymethyl)-, [2R-(2α, 3β,4α,5β)]] | exhibited antiviral activity | none | only the positive control CTS exhibited antiviral activity | potent antiviral agents that inhibit BVDV replication | 221 µM
